{"source": "paper PMC9558053", "about": "“Development of a novel high-throughput screen for the identification of new inhibitors of protein S-acylation” (The Journal of Biological Chemistry, 2022)", "molecular_target": "T1, human zDHHC17 (Homo sapiens, UniProt Q8IUH5)", "T1 construct": "expressed in transfected cells; host or cells: HEK293T", "T1 sequence (Q8IUH5 whole entry)": "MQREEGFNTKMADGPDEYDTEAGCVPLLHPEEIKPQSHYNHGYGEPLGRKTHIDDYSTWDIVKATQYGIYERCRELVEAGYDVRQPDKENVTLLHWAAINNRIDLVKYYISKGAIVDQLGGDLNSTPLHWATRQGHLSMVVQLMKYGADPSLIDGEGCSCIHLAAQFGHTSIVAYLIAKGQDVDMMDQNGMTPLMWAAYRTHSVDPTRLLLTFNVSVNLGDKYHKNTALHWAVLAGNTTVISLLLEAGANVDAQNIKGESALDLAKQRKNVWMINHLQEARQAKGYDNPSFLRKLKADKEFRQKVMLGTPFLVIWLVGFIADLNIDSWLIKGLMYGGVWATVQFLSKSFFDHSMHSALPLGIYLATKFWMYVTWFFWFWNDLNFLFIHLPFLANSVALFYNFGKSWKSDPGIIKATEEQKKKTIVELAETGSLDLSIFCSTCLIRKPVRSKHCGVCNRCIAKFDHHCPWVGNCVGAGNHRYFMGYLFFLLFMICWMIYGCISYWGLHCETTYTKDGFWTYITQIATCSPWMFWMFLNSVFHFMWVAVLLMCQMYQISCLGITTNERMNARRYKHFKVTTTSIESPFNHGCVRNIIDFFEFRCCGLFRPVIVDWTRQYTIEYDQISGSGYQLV", "assay": "GFP-SNAP25b S-acylation in HEK293T cells co-expressing zDHHC17", "type": "cell-based", "details": "in cellulo HEK293T, compound 25 μM; for inhibition at 25 µM: HEK-293T, read-out: SNAP25 S-acylation inhibition (%), zDHHC17; for SNAP25 S-acylation inhibition (%), zDHHC17: 25 µM", "protocol": "We next investigated whether the identified compounds were effective at inhibiting zDHHC enzyme isoforms other than zDHHC2 (Fig. 6 and Table 1). […] We therefore treated cells coexpressing GFP-SNAP25 and each of these zDHHC enzymes with 25 μM of TTZ-1 and TTZ-2 and studied the subsequent effect on SNAP25 S-acylation. […] Importantly, the level of enzyme expression was unaffected by the compounds. […] As any major differences in the expression levels of the different enzymes could in theory contribute to the apparent differential effects of TTZ-1 and TTZ-2, we directly compared the expression of zDHHC2, zDHHC3, zDHHC7, zDHHC15, and zDHHC17 when transfected in HEK293T cells together with GFP-SNAP25.\nFigure 6 Activity of TTZ-1 and TTZ-2 against SNAP25 S-acylation by human zDHHC2, zDHHC3, zDHHC7, zDHHC15, and zDHHC17 expressed in mammalian cells.A–E, HEK293T cells were transfected with a plasmid encoding GFP-SNAP25b together with either a control plasmid pEF-BOS-HA (pEF) or a plasmid encoding either HA-tagged human zDHHC2 (zD2) (A), zDHHC3 (zD3) (B), zDHHC7 (zD7) (C), zDHHC15 (zD15) (D), or zDHHC17 (zD17) (E) for 24 h. Cells were then preincubated for 4 h with TTZ-1 or TTZ-2 (25 μM final) or DMSO control before metabolic labeling with 100 μM C16:0-azide for 4 h. Cells were lysed, and proteins having incorporated C16:0-azide were labeled by click chemistry with an alkyne-IR800 dye. Protein samples were then resolved by SDS-PAGE and transferred to nitrocellulose membranes that were first stained with an infrared-680 total protein stain. Membranes were then destained and probed with an anti-HA antibody (IR680), followed by an anti-GFP antibody (IR680). Representative images are shown, and panels are presented in the following order (from top to bottom): click chemistry signal (Click [IR800]), GFP and HA immunoblots (IR680), and Total Protein Stain (IR680). Positions of the molecular mass markers (in kilodalton) are indicated on the right side of the membranes. Three independent experiments were performed either in duplicate or in triplicate, and the quantification data were gathered on the graphs below each set of membranes. […] Filled circles represent individual samples. […] Filled circles represent individual samples. Statistical analysis (ANOVA) was performed to test whether there was a significant difference between the zDHHC expression of cells treated with DMSO as a control versus similar samples treated with TTZ-1 or TTZ-2 (∗∗p < 0.01). F, samples from A, B, C, D, and E (expressing GFP-SNAP25 and HA-tagged zDHHC enzymes and treated with DMSO) were loaded on an SDS-PAGE gel and transferred to a nitrocellulose membrane. The membrane was probed for the expression of the HA-tagged enzymes with an anti-HA antibody (IR680). […]"}
{"smiles": "CCCCCCCOc1ccc(C(=O)Nc2cccc3c2OC(c2nnn[nH]2)CN3)cc1", "note": "(stereo not shown) [TTZ-1, N-(2-(1H-Tetrazol-5-yl)-3,4-dihydro-2H-benzo[b][1,4]oxazin-8-yl)-4-(heptyloxy)benzamide]", "values": [{"measurement": "inhibition at 25 µM", "value": "35 to 40", "unit": "%"}, {"measurement": "SNAP25 S-acylation inhibition (%), zDHHC17", "value": "36 ± 7", "unit": "%"}]}
{"smiles": "O=C(Nc1cccc2c1OC(c1nnn[nH]1)CN2)c1ccc(OCCCCc2ccccc2)cc1", "note": "(stereo not shown) [TTZ-2, N-(2-(1H-Tetrazol-5-yl)-3,4-dihydro-2H-benzo[b][1,4]oxazin-8-yl)-4-(4-phenylbutoxy)benzamide]", "values": [{"measurement": "inhibition at 25 µM", "value": "35 to 40", "unit": "%"}, {"measurement": "SNAP25 S-acylation inhibition (%), zDHHC17", "value": "39 ± 7", "unit": "%"}]}
